This experiment relates to glutathione peroxidase. The experiment is described as follows: Hydrogen peroxide tests, glutathione peroxidase reactivity. It is filed as biochemical. Particulars: A340 nm, 25 degrees Celsius; low and high concentration. The procedure:
The inventive oxygen-enriched output fluid material was tested for the presence of hydrogen peroxide by testing the reactivity with glutathione peroxidase using a standard assay (Sigma). Briefly, glutathione peroxidase enzyme cocktail was constituted in deionized water and the appropriate buffers. Water samples were tested by adding the enzyme cocktail and inverting. Continuous spectrophotometric rate determination was made at A340 nm, and room temperature (25 degrees Celsius).
Water samples were tested by adding the enzyme cocktail and inverting. Continuous spectrophotometric rate determination was made at A340 nm, and room temperature (25 degrees Celsius).

The structures appear in SMILES notation.

In the case of `OO` [hydrogen peroxide], the “reactivity with glutathione peroxidase” value is “strong reactivity”.
